Assays:
[1] = tested on: human panelists, savory taste; assay: Savory taste test with trained human panel (difference from reference); type: in vivo; conditions: for Taste Data: cpd concentration at which 12 mM MSG + cpd is as strong as 12 mM MSG + 100 μM IMP: with 12 mM MSG, reference 12 mM MSG + 100 μM IMP; for Taste Data: cpd concentration as strong as 12 mM MSG: compound alone, without MSG
Procedure: General Panelist Selection: Basic screening of sensory taste testers: Potential panelists were tested for their abilities to rank and rate intensities of solutions representing the five basic tastes. Panelists ranked and rated intensity of five different concentrations of each of the five following compounds: sucrose (sweet), sodium chloride (salty), citric acid (sour), caffeine (bitter), and monosodium glutamate (savory). In order to be selected for participation in testing, panelists needed to correctly rank and rate samples for intensity, with a reasonable number of errors.
Preliminary Taste Tests: The panelists selected in the above procedure were deemed qualified for performing Preliminary Taste Testing procedures. The preliminary taste tests are used to evaluate new compounds for intensity of basic tastes and off-tastes. A small group of panelists (n=5) taste approximately 5 concentrations of the compound (range typically between 1-100 μM, in half-log cycles, e.g., 1, 3, 10, 30, and 100 μM) in water and in a solution of 12 mM MSG to evaluate enhancement. Panelists rate the five basic tastes (sweet, salty, sour, bitter, and savory) as well as off-tastes (such as chemical, metallic, sulfur) on a labeled magnitude scale. Samples are served in 10 mL portions at room temperature. The purpose of the test is to determine the highest concentration at which there is no objectionable off-taste, and determine if obvious savory taste or enhancement of savory taste exists at any of the concentrations tested.
Trained Panelist Selection: A trained expert panel was used to further evaluate compounds that had been tested with the preliminary taste test.
Panelists for the trained panel were selected from the larger group of qualifying taste panelists. Panelists were further trained on savory taste by ranking and rating experiments using MSG and IMP combinations. Panelists completed a series of ranking, rating, and difference from reference tests with savory solutions. In ranking and rating experiments, panelists evaluated easy MSG concentrations (0, 6, 18, 36 mM) and more difficult MSG concentrations (3, 6, 12, 18 mM MSG) in water.
Compound testing with Trained Panel: Compounds tested by the trained panel were evaluated in difference from reference experiments. […] Test samples were solutions with varying amounts of MSG, IMP, and the compound. Typically, each session compares the reference sample to numerous test samples. […] Compounds were tested against the reference in samples with and without 12 mM MSG. All samples were presented in 10 ml volumes at room temperature. Two sessions were completed for each compound tested to evaluate panel reproducibility.

[2] = biological target: T1, hT1R1/hT1R3 umami receptor expressed in an HEK293 cell line (Homo sapiens, UniProt Q7RTX0+Q7RTX1); assay: Umami taste enhancement assay (EC50 ratio vs. MSG); type: cell-based
T1 construct: expressed in transfected cells; host or cells: HEK293 cell line derivative, clone 1-17, expression induced with mifepristone
T1 sequence (Q7RTX1 21-841): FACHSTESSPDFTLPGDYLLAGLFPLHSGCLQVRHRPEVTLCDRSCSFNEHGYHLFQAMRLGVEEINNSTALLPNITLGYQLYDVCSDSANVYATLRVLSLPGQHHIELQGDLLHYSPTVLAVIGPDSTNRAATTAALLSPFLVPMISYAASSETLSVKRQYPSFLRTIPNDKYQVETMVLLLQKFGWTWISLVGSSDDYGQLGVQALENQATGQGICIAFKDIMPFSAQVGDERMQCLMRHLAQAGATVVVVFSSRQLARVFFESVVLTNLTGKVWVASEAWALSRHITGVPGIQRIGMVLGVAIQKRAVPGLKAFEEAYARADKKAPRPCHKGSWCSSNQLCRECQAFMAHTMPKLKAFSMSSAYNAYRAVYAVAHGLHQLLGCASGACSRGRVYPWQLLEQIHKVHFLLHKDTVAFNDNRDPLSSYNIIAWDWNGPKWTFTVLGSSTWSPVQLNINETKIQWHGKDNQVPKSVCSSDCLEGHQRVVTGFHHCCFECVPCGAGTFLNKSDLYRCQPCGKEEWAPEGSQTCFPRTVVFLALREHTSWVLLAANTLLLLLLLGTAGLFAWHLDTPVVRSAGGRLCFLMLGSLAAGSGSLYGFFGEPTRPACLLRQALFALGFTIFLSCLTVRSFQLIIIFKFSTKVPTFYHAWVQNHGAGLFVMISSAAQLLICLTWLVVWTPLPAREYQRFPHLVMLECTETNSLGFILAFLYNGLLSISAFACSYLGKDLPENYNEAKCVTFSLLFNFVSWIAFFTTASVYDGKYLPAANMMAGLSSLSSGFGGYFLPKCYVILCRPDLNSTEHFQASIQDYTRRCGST
T1 sequence (Q7RTX0 21-852): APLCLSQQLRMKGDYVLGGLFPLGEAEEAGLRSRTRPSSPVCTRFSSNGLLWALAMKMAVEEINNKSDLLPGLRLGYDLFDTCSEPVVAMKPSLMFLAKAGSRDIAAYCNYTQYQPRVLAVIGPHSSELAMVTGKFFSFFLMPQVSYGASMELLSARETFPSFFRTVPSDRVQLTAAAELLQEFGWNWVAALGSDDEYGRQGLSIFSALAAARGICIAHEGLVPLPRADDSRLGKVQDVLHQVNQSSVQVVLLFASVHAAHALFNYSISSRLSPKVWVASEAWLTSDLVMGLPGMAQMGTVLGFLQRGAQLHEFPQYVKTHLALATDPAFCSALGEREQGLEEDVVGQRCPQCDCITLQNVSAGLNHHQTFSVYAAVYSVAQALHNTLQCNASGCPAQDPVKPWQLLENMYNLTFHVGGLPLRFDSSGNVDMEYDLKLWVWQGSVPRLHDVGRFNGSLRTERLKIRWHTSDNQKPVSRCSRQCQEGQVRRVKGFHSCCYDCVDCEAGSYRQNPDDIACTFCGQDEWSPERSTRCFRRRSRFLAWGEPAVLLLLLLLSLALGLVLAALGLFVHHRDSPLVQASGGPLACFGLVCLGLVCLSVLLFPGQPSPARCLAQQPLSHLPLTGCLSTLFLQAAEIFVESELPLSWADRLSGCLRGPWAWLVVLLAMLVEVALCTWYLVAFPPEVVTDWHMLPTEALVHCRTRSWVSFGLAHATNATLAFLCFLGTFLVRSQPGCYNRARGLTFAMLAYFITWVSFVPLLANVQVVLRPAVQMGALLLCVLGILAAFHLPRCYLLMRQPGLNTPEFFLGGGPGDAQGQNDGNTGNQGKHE
Text: In umami taste enhancement activity assay experiments, which produce an “EC50 ratio” measurement of how effectively the amide compounds of the invention enhance the savory flavorant (typically MSG) already in a test solution. A series of measurements of the dose response is run in solutions comprising MSG alone, then a second dose response is run with MSG in combination with predetermined amounts of a candidate compound of Formula (I) at the same time.
In this assay, increasing concentrations of monosodium glutamate (ranging from 12 μM to 81 mM) were presented, in duplicates, in the presence or absence of a fixed concentration of the test compound. Typical compound concentrations tested were 30 μM, 10 μM, 3 μM, 1 μM, 0.3 μM, 0.1 μM and 0.03 μM. The relative efficacy of compounds of […] at enhancing the receptor was determined by calculating the magnitude of a shift in the EC50 for monosodium glutamate. Enhancement was defined as a ratio (EC50R) corresponding to the EC50 of monosodium glutamate, determined in the absence of the test compound, divided by the EC50 of monosodium glutamate, determined in the presence of the test compound.
Stated alternatively, “EC50 ratio” as compared to MSG is calculated based on the following definitions:
EC50 Ratio vs. MSG=EC50 (MSG)/EC50 (MSG+[Compound]) wherein “[compound]” refers to the concentration of the compound of Formula (I) used to elicit (or enhance or potentiate) the MSG dose response.
It should be noted that the EC50 ratio measured can depend somewhat on the concentration of the compound itself. Preferred savory enhancers would have a high EC50 Ratio vs. MSG at a low concentration of the compound used.

[3] = tested on: trained tasters, savory, salt, spice flavors; assay: Italian sausage rank-rating intensity taste test; type: in vivo, human; conditions: scale 0-10, ten tasters
Text: Three different dry Italian sausage seasoning mixes were formulated by dry blending the ingredients shown in the Tables below, then rehydrated during the formulation of corresponding sausages. One control sample of seasoning mix (Tables 36-1a, b) contained no MSG, and no compounds of the invention. A second sample of seasoning mix and sausage contained added MSG (Tables 36-2a, b). A third sample of Seasoning mix and corresponding sausage also contained added savory flavor concentrate compositions (prepared as per Example 34) containing (0.1% wt/wt) of compounds 1 and 24 ([…]).
Ten trained tasters were trained to identify the relative intensities of the following taste attributes: salty, savory/meaty, umami, brothiness, bitter, linger and off flavors. A rank-rating intensity test was used to evaluate the Italian Sausagesamples. A rank rating is a difference test to determine whether a sensory difference is perceived between various samples. Samples that were evaluated were the Italian Sausage no MSG, Italian sausage with MSG, Italian sausage with compounds 1 and 24 but no MSG. The panelists evaluated 3 randomized, blind coded samples of one ounce of Italian sausage served at 140° F., and ranked the intensity of savory, salt, spice flavors on a scale of 0-10: 0 being the least intense and 10 being the most intenese, and the scores were averaged for individual category.

melting point	SMILES	Taste Data: cpd concentration at which 12 mM MSG + cpd is as strong as 12 mM MSG + 100 μM IMP [1]	other results
152 to 154 °C	Cc1ccc(CNC(=O)C(=O)NCCc2ccccn2)cc1 [Example 25, N-(4-methyl-benzyl)-N′-(2-pyridin-2-yl-ethyl)-oxalamide]	–	–
148 to 149 °C	Cc1ccc(CNC(=O)C(=O)NCCc2ccccn2)c(C)c1 [Example 27, N-(2,4-dimethylbenzyl)-N′-(2-(pyridin-2-yl)ethyl)oxalamide]	–	–
118 to 119 °C	COc1ccccc1CNC(=O)C(=O)NCCc1ccccn1 [Example 23, N-(2-Methoxy-benzyl)-N′-(2-pyridin-2-yl-ethyl)-oxalamide]	–	EC50 ratio (enhancement of the effectiveness of monosodium glutamate) ([2]; compound present at 0.3 μM): 18.85
117 to 118 °C	CCOc1ccc(CNC(=O)C(=O)NCCc2ccccn2)c(OC)c1 [Example 28, N-(4-ethoxy-2-methoxybenzyl)-N′-(2-(pyridin-2-yl)ethyl)oxalamide]	–	–
128 to 131 °C	COc1cc(C)ccc1CNC(=O)C(=O)NCCc1ccccn1 [Example 26, N-(2-methoxy-4-methylbenzyl)-N′-(2-(pyridin-2-yl)ethyl)oxalamide]	12 mM MSG + 1 μM cpd as	Taste Data: cpd concentration as strong as 12 mM MSG [1]: 1 μM cpd as strong as

Continued, compound first:

SMILES	melting point	Taste Data: cpd concentration at which 12 mM MSG + cpd is as strong as 12 mM MSG + 100 μM IMP [1]	other results
COC(=O)[C@@H](CC(C)C)NC(=O)c1cc(OC)nc(OC)c1 [Example 20, (R)-methyl 2-(2,6-dimethoxyisonicotinamido)-4-methylpentanoate]	–	12 mM MSG + 3 μM cpd as	–
CCCC(CCC)NC(=O)c1ccc2c(c1)OC(C)O2 (stereo not drawn) [Example 9, N-(heptan-4-yl)-2-methylbenzo[d][1,3]dioxole-5-carboxamide]	–	–	EC50 ratio (enhancement of the effectiveness of monosodium glutamate) ([2]; compound present at 0.03 μM): 3.68
COc1ccc2c(c1)CCC2NC(=O)c1ccc(OC)c(C)c1 (racemic) [Example 22, (R/S)-4-Methoxy-N-(5-methoxy-2,3-dihydro-1H-inden-1-yl)-3-methylbenzamide]	–	12 mM MSG + 1 μM cpd as	Taste Data: cpd concentration as strong as 12 mM MSG [1]: 1 μM cpd as strong as
CC1CCCC(NC(=O)c2ccc3c(c2)OCO3)C1C (stereo not drawn) [Example 4]	–	–	EC50 ratio (enhancement of the effectiveness of monosodium glutamate) ([2]; compound present at 1 μM): 8.4
N[C@@H](CCC(=O)O)C(=O)[O-].[Na+] [MSG, monosodium glutamate]	–	–	Average score Salt [3]: 5.24; Average score Savory [3]: 6.13; Average score Spice [3]: 5.42
COC(=O)[C@@H](CC(C)C)NC(=O)c1ccc2c(c1)OCO2 [Example 5, (R)-methyl 2-(benzo[d][1,3]dioxole-6-carboxamido)-4-methylpentanoate]	–	12 mM MSG + 10 μM cpd as	EC50 ratio (enhancement of the effectiveness of monosodium glutamate) ([2]; compound present at 0.1 μM): 4.9
COC[C@@H](CC(C)C)NC(=O)c1ccc(C)c(C)c1 [Example 18, (R)—N-(1-methoxy-4-methylpentan-2-yl)-3,4-dimethylbenzamide]	–	12 mM MSG + 3 μM cpd as	–
COC(=O)[C@@H](CC(C)C)NC(=O)c1cc(C)c(C)o1 [Example 19, (R)-methyl 2-(2,3-dimethylfuran-5-carboxamido)-4-methylpentanoate]	–	12 mM MSG + 10 μM cpd as	–
COC(=O)[C@@H](CC(C)C)NC(=O)c1ccc(OC)c(Cl)c1 [Example 16, (R)-methyl 2-(3-chloro-4-methoxybenzamido)-4-methylpentanoate]	–	–	EC50 ratio (enhancement of the effectiveness of monosodium glutamate) ([2]; compound present at 0.01 μM): 13.18
